Assay results as given in ChEMBL document CHEMBL5620427, “Recent advances in Fragment-based strategies against tuberculosis” (Eur J Med Chem, 2023).

Tested on: Mycobacterium tuberculosis variant bovis
Test: Antibacterial activity against Mycobacterium bovis BCG ATCC 35734 assessed as bacterial growth inhibition measured after 3 weeks by resazurin dye based assay
Format: functional
Settings: BCG ATCC 35734, 504 h

Row | SMILES | MIC99
1 | NS(=O)(=O)c1cc(Cl)cc(Cl)c1 | < 56 µM
2 | CCOC(=O)c1cc(Cl)c(O)c(Cl)c1 | < 53 µM
